Results published in ChEMBL document CHEMBL1201862, “PubChem BioAssay data set” (2004).
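In this assay, cells in 96-well plates receive the compound at five concentrations for 48 hours. Endpoints are linearly interpolated between the surrounding concentrations. At the GI50, growth is halved.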 Activity calls are given as the source filed them. Cut-off read from the data, not from the text of the source: active = GI50 up to about 1.1 µM and inactive = higher.

Key:
Experiment in all cases: NCI anticancer screen, dose series, 48 h
HCC 2998 = system: HCC 2998
Hs-578T = system: Hs-578T
HCT-15 = system: HCT-15
SNB-75 = system: SNB-75
UO-31 = system: UO-31
OVCAR-5 = system: OVCAR-5
TK-10 = system: TK-10
DU-145 = system: DU-145
NCI-H23 = system: NCI-H23
NCI/ADR-RES = system: NCI/ADR-RES
HOP-62 = system: HOP-62
MOLT-4 = system: MOLT-4
786-0 = system: 786-0
M14 = system: M14
SK-MEL-5 = system: SK-MEL-5
UACC-62 = system: UACC-62
CAKI-1 = system: CAKI-1
ACHN = system: ACHN
NCI-H226 = system: NCI-H226
HL-60 = system: HL-60

Row | SMILES | GI50 (HCC 2998) | GI50 (Hs-578T) | GI50 (HCT-15) | GI50 (SNB-75) | GI50 (UO-31) | GI50 (OVCAR-5) | GI50 (TK-10) | GI50 (DU-145) | GI50 (NCI-H23) | GI50 (NCI/ADR-RES) | GI50 (HOP-62) | GI50 (MOLT-4) | GI50 (786-0) | GI50 (M14) | GI50 (SK-MEL-5) | GI50 (UACC-62) | GI50 (CAKI-1) | GI50 (ACHN) | GI50 (NCI-H226) | GI50 (HL-60)
1 | Oc1ccnc(SCc2ccc(Cl)cc2)n1 | 13.4 µM (inactive) | > 100 µM (inactive) | > 100 µM | > 100 µM (inactive) | > 100 µM (inactive) | > 100 µM (inactive) | > 100 µM (inactive) | > 100 µM (inactive) | > 100 µM (inactive) | > 100 µM (inactive) | > 100 µM (inactive) | 63.7 µM (inactive) | > 100 µM (inactive) | > 100 µM (inactive) | > 100 µM (inactive) | > 100 µM (inactive) | > 100 µM (inactive) | > 100 µM (inactive) | – | –
2 | Nc1nc(O)c2[nH]cnc2[n+]1[O-] | – | > 100 µM (inactive) | > 100 µM | > 100 µM (inactive) | > 100 µM (inactive) | > 100 µM (inactive) | 53.3 µM (inactive) | > 100 µM (inactive) | > 100 µM (inactive) | > 100 µM (inactive) | > 100 µM (inactive) | > 100 µM (inactive) | > 100 µM (inactive) | > 100 µM (inactive) | > 100 µM (inactive) | > 100 µM (inactive) | – | > 100 µM (inactive) | > 100 µM (inactive) | > 100 µM (inactive)
3 | CCCNC1=Nc2ccccc2NC(C)C1 (configuration not stated) | – | > 100 µM (inactive) | > 100 µM | 22.6 µM (inactive) | > 100 µM (inactive) | > 100 µM (inactive) | > 100 µM (inactive) | > 100 µM (inactive) | > 100 µM (inactive) | > 100 µM (inactive) | > 100 µM (inactive) | > 100 µM (inactive) | > 100 µM (inactive) | > 100 µM (inactive) | > 100 µM (inactive) | > 100 µM (inactive) | > 100 µM (inactive) | > 100 µM (inactive) | > 100 µM (inactive) | > 100 µM (inactive)
4 | O=c1cccc(Cl)[nH]1 | – | > 100 µM (inactive) | > 100 µM | > 100 µM (inactive) | > 100 µM (inactive) | > 100 µM (inactive) | > 100 µM (inactive) | > 100 µM (inactive) | > 100 µM (inactive) | > 100 µM (inactive) | > 100 µM (inactive) | > 100 µM (inactive) | > 100 µM (inactive) | > 100 µM (inactive) | 27 µM (inactive) | > 100 µM (inactive) | > 100 µM (inactive) | > 100 µM (inactive) | > 100 µM (inactive) | –
5 | CC#CCCCC1(C)CCCNC1=S (configuration not stated) | – | > 10 µM (inactive) | > 10 µM | > 10 µM (inactive) | > 10 µM (inactive) | > 10 µM (inactive) | > 10 µM (inactive) | > 10 µM (inactive) | > 10 µM (inactive) | > 10 µM (inactive) | – | > 10 µM (inactive) | > 10 µM (inactive) | > 10 µM (inactive) | > 10 µM (inactive) | > 10 µM (inactive) | – | > 10 µM (inactive) | – | > 10 µM (inactive)
6 | N#C[C@@H](c1ccccn1)c1ncccc1[N+](=O)[O-] | > 100 µM (inactive) | > 100 µM (inactive) | > 100 µM | > 100 µM (inactive) | > 100 µM (inactive) | > 100 µM (inactive) | – | > 100 µM (inactive) | > 100 µM (inactive) | > 100 µM (inactive) | > 100 µM (inactive) | > 100 µM (inactive) | > 100 µM (inactive) | > 100 µM (inactive) | 90.2 µM (inactive) | > 100 µM (inactive) | > 100 µM (inactive) | > 100 µM (inactive) | – | –
7 | COc1ccc(/C=N\N2CC(=O)N3C4C=CC(CC4)N3C2=O)cc1 (configuration not stated) | – | 46.3 µM (inactive) | > 100 µM | 22.2 µM (inactive) | > 100 µM (inactive) | > 100 µM (inactive) | > 100 µM (inactive) | > 100 µM (inactive) | > 100 µM (inactive) | 81.8 µM (inactive) | 46.7 µM (inactive) | > 100 µM (inactive) | > 100 µM (inactive) | > 100 µM (inactive) | 54.7 µM (inactive) | 74.8 µM (inactive) | > 100 µM (inactive) | > 100 µM (inactive) | > 100 µM (inactive) | 53.1 µM (inactive)
8 | CNC(Cc1ccccc1)c1cccc(OC)c1O (configuration not stated) | – | > 100 µM (inactive) | > 100 µM | – | > 100 µM (inactive) | > 100 µM (inactive) | > 100 µM (inactive) | > 100 µM (inactive) | > 100 µM (inactive) | > 100 µM (inactive) | > 100 µM (inactive) | > 100 µM (inactive) | > 100 µM (inactive) | > 100 µM (inactive) | > 100 µM (inactive) | > 100 µM (inactive) | > 100 µM (inactive) | > 100 µM (inactive) | > 100 µM (inactive) | –
9 | O=C(O/N=c1/ccc(=O)/c(=N\OC(=O)c2ccccc2)c1=O)c1ccccc1 | > 100 µM (inactive) | > 100 µM (inactive) | > 100 µM | > 100 µM (inactive) | > 100 µM (inactive) | > 100 µM (inactive) | > 100 µM (inactive) | – | > 100 µM (inactive) | > 100 µM (inactive) | > 100 µM (inactive) | 40.2 µM (inactive) | > 100 µM (inactive) | > 100 µM (inactive) | > 100 µM (inactive) | – | > 100 µM (inactive) | > 100 µM (inactive) | > 100 µM (inactive) | 0.857 µM (active)
10 | CSc1cc(Cl)c(C)cc1S(=O)(=O)NC(=O)NNc1ccccn1 | > 100 µM (inactive) | > 100 µM (inactive) | > 100 µM | 5.21 µM (inactive) | – | > 100 µM (inactive) | – | > 100 µM (inactive) | – | > 100 µM (inactive) | > 100 µM (inactive) | > 100 µM (inactive) | > 100 µM (inactive) | > 100 µM (inactive) | > 100 µM (inactive) | – | > 100 µM (inactive) | > 100 µM (inactive) | > 100 µM (inactive) | –
11 | COc1cc2c(cc1OC)C1(COc3cc(O)c(O)c(O)c3C1=O)C2 (configuration not stated) | – | 16.4 µM (inactive) | > 50 µM | 8.65 µM (inactive) | > 50 µM (inactive) | > 50 µM (inactive) | > 50 µM (inactive) | > 50 µM (inactive) | 45.4 µM (inactive) | > 50 µM (inactive) | > 50 µM (inactive) | > 50 µM (inactive) | > 50 µM (inactive) | > 50 µM (inactive) | > 50 µM (inactive) | > 50 µM (inactive) | > 50 µM (inactive) | > 50 µM (inactive) | > 50 µM (inactive) | > 50 µM (inactive)
12 | Nc1ccc(SC23CC4CC(CC(C4)C2)C3)cc1 | > 100 µM (inactive) | > 100 µM (inactive) | > 100 µM | – | > 100 µM (inactive) | > 100 µM (inactive) | > 100 µM (inactive) | > 100 µM (inactive) | > 100 µM (inactive) | > 100 µM (inactive) | > 100 µM (inactive) | – | > 100 µM (inactive) | > 100 µM (inactive) | > 100 µM (inactive) | > 100 µM (inactive) | > 100 µM (inactive) | > 100 µM (inactive) | < 0.01 µM (active) | > 100 µM (inactive)
13 | CSC1=Nc2ccccc2-c2nc(-c3ccccc3)cc(-c3ccccc3)c2C1 | 41.6 µM (inactive) | – | 31.6 µM | 4.26 µM (inactive) | 23.5 µM (inactive) | 33 µM (inactive) | 16.2 µM (inactive) | 60.4 µM (inactive) | 12.4 µM (inactive) | 19.7 µM (inactive) | 19.8 µM (inactive) | > 100 µM (inactive) | 10.2 µM (inactive) | 13.9 µM (inactive) | 16.6 µM (inactive) | 9.77 µM (inactive) | 12.4 µM (inactive) | 12.4 µM (inactive) | 87.9 µM (inactive) | > 100 µM (inactive)
14 | O=C1/C(=C/c2cccs2)N=C(c2ccccc2)N1c1nc2ccccc2s1 | > 100 µM (inactive) | 14.1 µM (inactive) | 82.4 µM | – | 24.2 µM (inactive) | > 100 µM (inactive) | > 100 µM (inactive) | 67.3 µM (inactive) | > 100 µM (inactive) | 64.4 µM (inactive) | > 100 µM (inactive) | 11.7 µM (inactive) | 41.3 µM (inactive) | > 100 µM (inactive) | > 100 µM (inactive) | – | 14 µM (inactive) | > 100 µM (inactive) | > 100 µM (inactive) | > 100 µM (inactive)
15 | CN(C)CCCNC(=S)S | – | > 100 µM (inactive) | > 100 µM | – | – | > 100 µM (inactive) | > 100 µM (inactive) | > 100 µM (inactive) | > 100 µM (inactive) | > 100 µM (inactive) | > 100 µM (inactive) | > 100 µM (inactive) | > 100 µM (inactive) | > 100 µM (inactive) | > 100 µM (inactive) | – | > 100 µM (inactive) | > 100 µM (inactive) | > 100 µM (inactive) | > 100 µM (inactive)
16 | C[C@H]1C(OCCOC2O[C@@H]3O[C@@]4(C)CC[C@H]5[C@H](C)CCC([C@H]2C)[C@@]35O4)O[C@@H]2O[C@@]3(C)CC[C@H]4[C@H](C)CCC1[C@@]24O3 (some centres not stated) | 21.6 µM (inactive) | – | 28.2 µM | 25.9 µM (inactive) | – | 50.7 µM (inactive) | – | 19.5 µM (inactive) | 31.6 µM (inactive) | 25.1 µM (inactive) | 37.7 µM (inactive) | 58.6 µM (inactive) | 27 µM (inactive) | 32.1 µM (inactive) | 15.3 µM (inactive) | 61.2 µM (inactive) | 37.2 µM (inactive) | 40.3 µM (inactive) | 28.2 µM (inactive) | 24.9 µM (inactive)
